Measurements: ChEMBL document CHEMBL1123172, “Inhibitors of dihydropteroate synthase: substituent effects in the side-chain aromatic ring of 6-[[3-(aryloxy)propyl]amino]-5-nitrosoisocytosines and synthesis and inhibitory potency of bridged 5-nitrosoisocytosine-p-aminobenzoic acid analogues” (J Med Chem, 1986)

target: T1, Dihydropteroate synthase (Escherichia coli K-12, UniProt P0AC13); test: In vitro concentration required to inhibit partially purified dihydropteroate synthase of Escherichia coli by 50%; type: functional; details: read-out: I50
T1 sequence (P0AC13 whole entry): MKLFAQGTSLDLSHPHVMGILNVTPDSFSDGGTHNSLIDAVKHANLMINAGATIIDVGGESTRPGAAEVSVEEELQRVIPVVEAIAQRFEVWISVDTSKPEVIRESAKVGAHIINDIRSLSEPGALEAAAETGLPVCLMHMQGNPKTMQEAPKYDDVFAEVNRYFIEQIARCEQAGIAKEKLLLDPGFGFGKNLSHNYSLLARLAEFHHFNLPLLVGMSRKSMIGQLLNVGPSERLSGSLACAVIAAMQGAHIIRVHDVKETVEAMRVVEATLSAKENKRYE

Row | SMILES | IC50 [nM]
1 | CCOC(=O)c1ccc(NCCCCNc2nc(N)nc(O)c2N=O)cc1 | 3000
2 | Nc1nc(O)c(N=O)c(NCCCOc2ccc(OCc3ccccc3)cc2)n1 | 3000
3 | Nc1nc(O)c(N=O)c(NCCCOc2ccc([N+](=O)[O-])cc2)n1 | 1000
4 | COc1cc(OCCCNc2nc(N)nc(O)c2N=O)cc(OC)c1OC | 2000
5 | Nc1nc(NCCCOc2ccc(C(=O)O)cc2)c(N=O)c(=O)[nH]1 | 6600
6 | Nc1nc(O)c(N=O)c(NCCCOc2cc(Cl)cc(Cl)c2)n1 | 1400
7 | CCOC(=O)c1ccc(OCCCNc2nc(N)nc(O)c2N=O)cc1 | 2900
8 | Nc1nc(O)c(N=O)c(NCCCNc2ccc(C(=O)O)cc2)n1 | 8900
9 | CS(=O)(=O)c1ccc(OCCCNc2nc(N)nc(O)c2N=O)cc1 | 2500
10 | COc1cc(OC)cc(OCCCNc2nc(N)nc(O)c2N=O)c1 | 700
11 | Nc1nc(O)c(N=O)c(NCCCCNc2ccc(C(=O)O)cc2)n1 | 2500
12 | Nc1nc(O)c(N=O)c(NCCCOc2ccc(Cl)cc2)n1 | 1000
13 | Cc1ccc(S(=O)(=O)Nc2ccc(OCCCNc3nc(N)nc(O)c3N=O)cc2)cc1 | 600
14 | Nc1nc(O)c(N=O)c(NCCCOc2ccc(C(F)(F)F)cc2)n1 | 1400
15 | CCCCOc1ccc(OCCCNc2nc(N)nc(O)c2N=O)cc1 | 2100
16 | COc1ccc(OCCCNc2nc(N)nc(O)c2N=O)cc1 | 7300
17 | Nc1nc(O)c(N=O)c(NCCCOc2ccc(O)cc2)n1 | 2200
18 | Nc1nc(O)c(N=O)c(NCCCOc2ccccc2OCc2ccccc2)n1 | 18000
